Entries after “also recorded” stand apart in the source; their conditions may differ.
Experiments:
skin graft donor sites = assay: Human patients, skin-graft donor site treated with TXA embedded dressings without a drain; assay type: in vivo
Description: Human patients were treated with TXA embedded dressings. A 50 cm^2 partial thickness wound was generated with a dermatome, thereby creating the skin-graft donor site. […] Non-adherent sterile dressings (TIELLE™) were contacted with the solution and placed directly on the donor site dressing.
The wounds were covered with a semipermeable film ([…]™) without a drain. Normally a dermal drain is placed through the film into contact with the wound with the intention of collecting fluid. A total of 300 ml in 5 days is normally collected (60 ml per day=[…]).

chronic ulcers = assay: Chronic ulcers treated with similar TXA dressings; assay type: in vivo, Human
[1] = system: rhytidoplasty (face lift); settings: local TXA irrigation; first twenty-four hours after rhytidoplasty; cited from earlier work
[2] = system: keratinocyte and fibroblast cell cultures; settings: short exposure to even high concentrations of topical TXA; cited from earlier work
scald injuries = assay: Scald injuries treated with similar TXA dressings; assay type: in vivo, Human
Description: In particular, a child with a scald was treated with TIELLE™ containing TXA and the dressing was removed after ten days.

NC[C@H]1CC[C@H](C(=O)O)CC1 [TXA, tranexamic acid]
amount of exudate (skin graft donor sites; 50 cm^2 partial thickness skin-graft donor site, one to two grams TXA in 10 ml normal saline on TIELLE dressing, TEGADERM film, no drain): reducing significantly the amount of exudate; also recorded: greatly reduce exudate | bleeding (skin graft donor sites; skin graft donor sites, topical TXA): little bleeding | adverse effect of TXA (skin graft donor sites; skin-graft donor site, topical TXA dressing): no adverse effect | re-epithelialization of the wound (skin graft donor sites; skin-graft donor site, at removal of original dressing (12-14 days, 8-16 days)): re-epithelialized skin surface without the need for placement of a further dressing; also recorded: In most cases the wound was fully epithelialized; also recorded: rapid and complete or near complete re-epithelialization | reepithelization (chronic ulcers): near complete reepithelization | bleeding [1]: decrease bleeding | drainage [1]: reduce drainage | tolerance in vitro [2]: well tolerated | reepithelization (scald injuries): near complete reepithelization

From patent US20250195714A1, “DEVICES AND METHODS OF TREATING WOUNDS” (University of Massachusetts, priority 2022, published 2025)
